Data taken from PMC11111404, “Discovery of potent small-molecule inhibitors of lipoprotein(a) formation” (Nature, 2024).
Where “and” joins values, the source holds several entries; their conditions need not be identical. Equal entries are not always repeated. Where two headings read alike, the source gives them in different places.

Legend:
[1] = tested on: Lp(a); experiment: Lp(a) levels in LPA × ApoB100 transgenic mice; format: in vivo, mouse; parameters: Lp(a) / Diff_vs_Vehicle: unit not given here; conditions: for Lp(a) / Percent_change_from_Vehicle (Lp(a)): individual animals, Fig 3f data; for Diff_vs_Vehicle: Lp(a), transgenic mice, group statistics
Method: (§1) The LPA gene (GenBank accession code NM_005577) encoding the human apo(a) protein with a signal peptide, one KIV type 1, six KIV type 2 repeats, one each of KIV types 3–10, one KV and one protease domain was subcloned into a transgenic vector containing a mouse albumin promoter cassette and a human growth hormone polyadenylation signal. The transgenic mouse line was generated by pronucleus injection of the LPA transgenic vector. Eight individual transgenic founder mice were assessed for germline transmission of LPA by genotyping and assessment of the levels of apo(a) in the plasma. Positive founder mice were crossed with ApoB100 transgenic mice (Taconic model 1004), and the resulting mouse line nomenclature (B6.SJL-Tg(APOB)1102Sgy Tg(Alb-LPA)32Arte) was selected on the basis of the confirmation of germline transmission, the identification of LPA and huApoB100 transgenes and the levels of Lp(a) in the plasma. Mice hemizygous for both transgenes were used for pharmacology studies. The studies were conducted in female Lp(a) double transgenic mice (age around 7–17 months). Mice were housed in cages with a standard light cycle (12-h light, 12-h dark), at room temperature (22 ± 4 °C), with a relative humidity of 30–70%. Mice were identified by numbers on the cage cards. After arrival, mice were fed on a normal diet (Harlan Teklad diet 2014). Mice were randomized to treatment groups (n = 5 per group, unless otherwise noted) by body weight and baseline plasma Lp(a) concentration using a block randomized allocation tool (BRAT) for the study. In an example Lp(a) transgenic mouse study in which 66 mice were prescreened for baseline Lp(a) levels, the average Lp(a) level was 45 ± 1.8 µg ml^−1 (range 20–78 µg ml^−1). Mice were dosed with various compounds in vehicle (10 ml kg^−1, 1% hydroxyethyl cellulose (HEC), 0.25% Tween-80, Antifoam) or with vehicle alone as a control orally BID for five days. Blood samples were collected by tail bleeds at designated times, and Lp(a) levels were determined by ELISA by an investigator who was blinded to group allocation. In brief, lipoprotein particles were captured by a goat anti-Lp(a)-antibody-coated plate (Abcam ab31675, diluted 1:12,500 in HEPES-buffered saline), the plates were washed and samples were detected using an HRP-conjugated goat anti-apoB antibody (Abcam ab27622, diluted 1:3,000). Colorimetric peroxidase substrate 3,3’,5,5’-TMB was added, and the reaction was stopped using 1 N sulfuric acid. Absorbance at 450 nm was read on a Molecular Devices SpectraMax plate reader. Blood samples were collected at four hours after dosing on day 5 of dosing to confirm exposure. Full pharmacokinetic (PK) profiles were not evaluated. Concentrations of compounds were evaluated from dried blood spots through a non-Good Laboratory Practice (GLP) liquid chromatography with tandem mass spectrometry (LC–MS/MS) assay. Data were analysed in GraphPad Prism v.9.5.1

[2] = molecular target: T1, plasmin activity (Rattus norvegicus, UniProt Q01177); experiment: Rat plasma plasmin (plasminogen) activity ex vivo after oral dosing; format: in vivo; conditions: rat plasma, individual animal; for PLG activity (Vmax), % change from Vehicle: vehicle mean 431.7
T1 construct: Plasma samples were collected via the abdominal aorta; from tissue; host or cells: Citrated plasma of orally dosed male Sprague Dawley rats
Method: Male Sprague Dawley rats (Charles River, average body weight 310 g, aged eight to nine weeks old) were housed in cages with a standard light cycle (12-h light, 12-h dark), at room temperature (22 ± 4 °C), with a relative humidity of 30–70%. Rats were identified by numbers on the cage cards. After arrival, rats were fed on a normal diet (Harlan Teklad diet 2014) and randomized to treatment groups (n = 5 per group) by baseline plasma plasminogen concentration and activity using a BRAT. LSN3441732 and LY3473329 were administered QD orally at three dose levels (3.7, 12.3 and 37 mg kg^−1; 3.2, 10.5 and 31.6 mg kg^−1 per dose, respectively) or vehicle (10 ml kg^−1, 1% HEC, 0.25% Tween-80, Antifoam) for four days. Terminal blood was drawn under general anaesthesia 24 h after the day-4 oral dose. Plasma samples were collected via the abdominal aorta into a premeasured anticoagulant BD Vacutainer used for blood collection (2.7 ml, buffered sodium citrate). The liver was flash frozen in liquid nitrogen. To measure plasminogen activity, 100 µl plasma per well was added to a 96-well plate (Corning) and the following were added to the indicated concentrations: 7.5 mM CaCl2 and 117 mM NaCl. Wells were mixed and warmed to 37 °C. Urokinase (Millipore) was added at 125 U per well and the plate was incubated at 37 °C for 4 min. The plasminogen substrate Chromogenix S-2251 (DiaPharma) was added to a concentration of 3.3 mM. The mixture was added and the plate was sealed and placed in a prewarmed plate reader, shaken, and the absorbance read every 30 s for 2 h. The maximum slope for each curve was determined and the percentage inhibition was calculated relative to untreated controls. Plasminogen protein was measured using ELISA kits for rat (Abcam ab157740) according to the manufacturer’s instructions. Plasminogen activity (percentage) and mass (µg ml^−1) in rat were analysed by ANOVA in JMP 16.1.0. The percentage reduction of plasminogen activity and mass for each treated group was compared with vehicle by Dunnett’s method.

[3] = Drug concentration in mouse blood after oral dosing; format: in vivo; conditions: female, whole blood (dried blood spots), day 5, read-out: Drug concentration, 4-h time point
Method: as §1

[4] = 3473329 dose 3.2 mpk, 3.2 mg/kg
[5] = 3473329 dose 10.5 mpk, 10.5 mg/kg
[6] = 3473329 dose 31.6 mpk, 31.6 mg/kg

T1 sequence (Q01177 20-812 limits assumed): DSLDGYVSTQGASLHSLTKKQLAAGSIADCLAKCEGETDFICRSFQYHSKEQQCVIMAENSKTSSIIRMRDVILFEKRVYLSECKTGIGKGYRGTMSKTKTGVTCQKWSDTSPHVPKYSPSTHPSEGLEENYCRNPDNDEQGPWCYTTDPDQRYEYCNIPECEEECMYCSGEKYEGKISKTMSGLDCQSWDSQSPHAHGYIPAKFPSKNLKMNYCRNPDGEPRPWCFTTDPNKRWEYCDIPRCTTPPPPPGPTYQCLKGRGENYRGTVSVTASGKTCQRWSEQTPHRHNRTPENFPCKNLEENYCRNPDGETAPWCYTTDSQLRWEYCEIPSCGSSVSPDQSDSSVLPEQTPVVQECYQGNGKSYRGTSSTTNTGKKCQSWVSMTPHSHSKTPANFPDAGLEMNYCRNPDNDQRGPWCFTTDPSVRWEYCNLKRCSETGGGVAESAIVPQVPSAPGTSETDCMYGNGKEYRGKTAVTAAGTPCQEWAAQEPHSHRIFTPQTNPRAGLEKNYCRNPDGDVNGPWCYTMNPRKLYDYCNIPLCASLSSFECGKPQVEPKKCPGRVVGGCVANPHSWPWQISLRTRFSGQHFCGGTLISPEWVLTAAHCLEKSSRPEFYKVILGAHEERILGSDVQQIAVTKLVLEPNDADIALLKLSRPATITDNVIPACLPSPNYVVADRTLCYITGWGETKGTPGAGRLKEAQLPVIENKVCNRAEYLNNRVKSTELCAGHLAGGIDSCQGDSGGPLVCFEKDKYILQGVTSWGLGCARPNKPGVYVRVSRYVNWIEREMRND

concentration at 4 h ([3]; oral 1 mg/kg): 28.4 ± 11 nM
concentration at 4 h ([3]; oral 3 mg/kg): 97.3 ± 39.1 nM
concentration at 4 h ([3]; oral 10 mg/kg): 215 ± 34.6 nM
concentration at 4 h ([3]; oral 30 mg/kg): 264 ± 39.3 nM
Structure (SMILES): O=C(O)[C@@H](Cc1cccc(CN(Cc2cccc(C[C@H](C(=O)O)[C@H]3CCNC3)c2)Cc2cccc(C[C@H](C(=O)O)[C@H]3CCNC3)c2)c1)[C@H]1CCNC1 [LY3473329]
Lp(a) ([1]; 1mpk): 7.93 and 10.403 and 8.938 and 8.912 and 9.52
Percent_change_from_Vehicle (Lp(a)) ([1]; 1mpk): -28.3118% and -5.956% and -19.1994% and -19.4345% and -13.9381%
Lp(a) ([1]; 3mpk): 3.393 and 6.014 and 3.723 and 4.125 and 6.197
Percent_change_from_Vehicle (Lp(a)) ([1]; 3mpk): -69.3269% and -45.6327% and -66.3436% and -62.7095% and -43.9784%
Lp(a) ([1]; 10mpk): 2.124 and 2.374 and 3.019 and 1.686 and 1.632
Percent_change_from_Vehicle (Lp(a)) ([1]; 10mpk): -80.7988% and -78.5388% and -72.7079% and -84.7584% and -85.2465%
Lp(a) ([1]; 30mpk): 1.195 and 0.994 and 1.853 and 0.894 and 0.985
Percent_change_from_Vehicle (Lp(a)) ([1]; 30mpk): -89.1971% and -91.0141% and -83.2487% and -91.9181% and -91.0955%
% max Lp(a) decrease (dose, mg/kg) ([1]; Lp(a) transgenic mice section, dose 100 mg/kg): 91.2 (100) %
% Lp(a) max decrease ([1]; Lp(a) transgenic mice, BID, 5 days dosing): 91.2%
Diff_vs_Vehicle ([1]; 1mpk): -1.9212
Diff_vs_Vehicle ([1]; 3mpk): -6.3714
Diff_vs_Vehicle ([1]; 10mpk): -8.8948
Diff_vs_Vehicle ([1]; 30mpk): -9.8776
ED50 ([1]; Mus musculus, 120 h, Lp(a) transgenic mice, BID, 5 days dosing): 3 mg/kg
PLG activity (Vmax), Plasminogen (mean of replicates) [2, 4]: 454.0 and 451.6 and 414.5 and 449.4 and 437.1
PLG activity (Vmax), Replicate 1 [2, 4]: 455.671 and 447.416 and 413.515 and 443.630 and 436.745
PLG activity (Vmax), Replicate 2 [2, 4]: 452.252 and 455.835 and 415.508 and 455.110 and 437.378
PLG activity (Vmax), % change from Vehicle [2, 4]: 5.15% and 4.60% and -3.99% and 4.08% and 1.23%
PLG activity (Vmax), Plasminogen (mean of replicates) [2, 5]: 426.8 and 390.7 and 429.5 and 340.1 and 383.7
PLG activity (Vmax), Replicate 1 [2, 5]: 431.402 and 387.065 and 425.922 and 337.633 and 378.355
PLG activity (Vmax), Replicate 2 [2, 5]: 422.258 and 394.290 and 433.134 and 342.491 and 389.046
PLG activity (Vmax), % change from Vehicle [2, 5]: -1.14% and -9.51% and -0.51% and -21.24% and -11.13%
PLG activity (Vmax), Plasminogen (mean of replicates) [2, 6]: 357.4 and 336.9 and 317.3 and 381.6 and 333.2
PLG activity (Vmax), Replicate 1 [2, 6]: 356.862 and 337.031 and 314.998 and 380.162 and 336.487
PLG activity (Vmax), Replicate 2 [2, 6]: 357.898 and 336.831 and 319.531 and 383.010 and 329.925
PLG activity (Vmax), % change from Vehicle [2, 6]: -17.22% and -21.96% and -26.52% and -11.62% and -22.82%
